Reference: the NIST ThermoML archive (doi:10.1016/j.jct.2016.07.015)
Several values for one entry are separate records, joined by “and”; a condition that tells them apart may be missing. Equal entries are not always repeated. ± gives the expanded uncertainty stated by the source.

Settings: Crystal, Calculated from knudsen effusion weight loss

Structure (SMILES): COc1cc(CO)ccc1O [4-hydroxy-3-methoxybenzyl alcohol]
- vapor or sublimation pressure (332.19 K): 0.000113 ± 6e-05 kPa and 0.0001121 ± 6e-05 kPa and 0.0001096 ± 6e-05 kPa
- vapor or sublimation pressure (334.36 K): 0.0001475 ± 6e-05 kPa and 0.0001466 ± 6e-05 kPa and 0.0001413 ± 6e-05 kPa
- vapor or sublimation pressure (336.15 K): 0.0001823 ± 6e-05 kPa and 0.0001755 ± 6e-05 kPa and 0.0001867 ± 6e-05 kPa
- vapor or sublimation pressure (338.21 K): 0.0002375 ± 6.1e-05 kPa and 0.0002339 ± 6.1e-05 kPa and 0.0002403 ± 6.1e-05 kPa
- vapor or sublimation pressure (340.27 K): 0.0003072 ± 6.1e-05 kPa and 0.0002982 ± 6.1e-05 kPa and 0.0003122 ± 6.1e-05 kPa
- vapor or sublimation pressure (342.14 K): 0.0003845 ± 6.2e-05 kPa and 0.0003697 ± 6.1e-05 kPa and 0.0003916 ± 6.2e-05 kPa
- vapor or sublimation pressure (344.21 K): 0.0005061 ± 6.3e-05 kPa and 0.0004935 ± 6.3e-05 kPa and 0.000506 ± 6.3e-05 kPa
- vapor or sublimation pressure (346.27 K): 0.0006422 ± 6.4e-05 kPa and 0.0006234 ± 6.4e-05 kPa and 0.0006502 ± 6.4e-05 kPa
- vapor or sublimation pressure (348.13 K): 0.0008066 ± 6.7e-05 kPa and 0.0007737 ± 6.6e-05 kPa and 0.0008145 ± 6.7e-05 kPa
- vapor or sublimation pressure (350.15 K): 0.001038 ± 9.5e-05 kPa and 0.001007 ± 9.3e-05 kPa and 0.001064 ± 9.7e-05 kPa
